The values that follow come from the NIST ThermoML archive (doi:10.1021/je800998u).

This data set in a line: Molar enthalpy of transition or fusion. The settings on record: Adiabatic calorimetry.

± gives the expanded uncertainty stated by the source.

Take `CC(C)COCC(C)C` [diisobutyl ether]: the “Molar enthalpy of transition or fusion” value (Crystal 1) came to 11.3 ± 0.23 kJ/mol and the “Molar enthalpy of transition or fusion” value (Crystal 2) was determined as 1.8 ± 0.19 kJ/mol.
